Assay results from the supplement of paper PMC10307832.

Key:
Assay in all cases: relative viability (nuclei count vs DMSO), 5 days (fraction); higher = more cells survive
[1] = compound: Nc1ccccc1NC(=O)c1ccc(CNC(=O)OCc2cccnc2)cc1 [Entinostat] + NC(=O)Nc1cc(-c2cccc(F)c2)sc1C(=O)N[C@H]1CCCNC1 [AZD7762] (partner 0.2 µM)
Outline: (§1)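 Relative viability was taken as the ratio of nuclei in treated wells to nuclei in vehicle wells. Lung cancer cell lines in 1536-well plates received compounds by pin tool one day after seeding, either one drug alone or a fixed anchor-drug dose plus five library-drug doses (not always all listed) in √10 steps. Nuclei were counted on 4× images after 5 days of treatment, and values are medians of duplicate plates.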

[2] = compound: CN1CCC(CNc2ccc3ncc(-c4cccc(OC(F)(F)F)c4)n3n2)CC1 [SGI-1776] + CCNC(=O)c1noc(-c2cc(C(C)C)c(O)cc2O)c1-c1ccc(CN2CCOCC2)cc1 [Luminespib] (partner 0.01 µM)
Outline: as §1

[3] = compound: CN1CCC(CNc2ccc3ncc(-c4cccc(OC(F)(F)F)c4)n3n2)CC1 [SGI-1776] + COc1cc2c(Oc3ccc(NC(=O)C4(C(=O)Nc5ccc(F)cc5)CC4)cc3F)ccnc2cc1OCCCN1CCOCC1 [Foretinib] (partner 0.25 µM)
Outline: as §1

[4] = compound: C1COCCN1C2=NC(=NC3=C2OC4=C3C=CC=N4)C5=CC(=CC=C5)NC(=O)C6=CN=C(C=C6)N + COc1cc2c(Oc3ccc(NC(=O)C4(C(=O)Nc5ccc(F)cc5)CC4)cc3F)ccnc2cc1OCCCN1CCOCC1 [Foretinib] (partner 0.25 µM)
Outline: as §1

Row | Cell Line | relative viability ([1]; first compound 0.02 µM) | relative viability ([1]; first compound 0.06325 µM) | relative viability ([1]; first compound 0.2 µM) | relative viability ([1]; first compound 0.6325 µM) | relative viability ([1]; first compound 2 µM) | relative viability ([2]; first compound 0.08 µM) | relative viability ([2]; first compound 0.8 µM) | relative viability ([2]; first compound 2.53 µM) | relative viability ([2]; first compound 8 µM) | relative viability ([3]; first compound 0.08 µM) | relative viability ([3]; first compound 0.8 µM) | relative viability ([3]; first compound 2.53 µM) | relative viability ([3]; first compound 8 µM) | relative viability ([4]; first compound 0.02 µM) | relative viability ([4]; first compound 0.06325 µM) | relative viability ([4]; first compound 0.2 µM) | relative viability ([4]; first compound 0.6325 µM) | relative viability ([4]; first compound 2 µM)
1 | HCC-44 | 1.02 | 0.876 | 1.02 | 0.995 | 0.774 | 1.06 | 0.953 | 1.01 | 0.693 |  |  |  |  |  |  |  |  | 
2 | HCC-78 | 0.609 | 0.687 | 0.466 | 0.327 | 0.254 |  |  |  |  | 0.553 | 0.566 | 0.595 | 0.606 | 0.466 | 0.553 | 0.587 | 0.531 | 0.425
3 | COR-L23 |  |  |  |  |  | 0.702 | 0.68 | 0.743 | 0.511 | 0.976 | 0.92 | 1.02 | 0.931 | 0.97 | 1.02 | 0.99 | 1.1 | 0.692
4 | NCI-H2009 |  |  |  |  |  | 1.04 | 1.03 | 0.977 | 0.955 | 1.19 | 1.27 | 1.24 | 0.931 | 1.28 | 1.24 | 1.19 | 1.11 | 0.932
5 | NCI-H3122 | 1.03 | 1.01 | 1.15 | 0.971 | 0.805 | 0.089 | 0.096 | 0.0857 | 0.0863 | 0.968 | 0.964 | 1.04 | 1.04 | 0.991 | 0.923 | 0.883 | 1.14 | 0.807
6 | NCI-H2228 |  |  |  |  |  | 0.169 | 0.139 | 0.164 | 0.13 | 0.889 | 0.613 | 0.803 | 0.446 | 0.911 | 0.855 | 1 | 0.836 | 0.446
7 | NCI-H1944 | 0.413 | 0.463 | 0.394 | 0.259 | 0.238 | 0.871 | 0.67 | 0.669 | 0.618 | 0.869 | 0.83 | 0.926 | 0.713 | 0.898 | 0.916 | 0.942 | 0.772 | 0.731
8 | NCI-H2342 | 0.514 | 0.569 | 0.507 | 0.428 | 0.398 | 0.695 | 0.767 | 0.721 | 0.64 | 1.22 | 1.07 | 1.04 | 1.04 | 0.981 | 1.24 | 1.02 | 1.01 | 0.88
9 | NCI-H358 | 0.55 | 0.69 | 0.6 | 0.408 | 0.192 | 0.729 | 0.506 | 0.432 | 0.315 | 0.698 | 0.553 | 0.467 | 0.198 |  | 0.721 | 0.537 | 0.68 | 0.477
10 | NCI-H1755 | 0.406 | 0.486 | 0.493 | 0.405 | 0.355 | 0.482 | 0.515 | 0.408 | 0.326 | 0.949 | 0.931 | 0.881 | 0.854 | 0.902 | 0.94 | 0.871 | 0.805 | 0.622
11 | A-427 | 0.703 | 0.775 | 0.731 | 0.584 | 0.428 | 0.915 | 0.856 | 0.755 | 0.869 | 1.15 | 1.17 | 0.972 | 0.983 | 1.11 | 1.28 | 1.16 | 0.855 | 0.676
12 | SK-LU-1 |  |  |  |  |  | 0.217 | 0.192 | 0.19 | 0.167 | 0.843 | 0.773 | 0.765 | 0.426 | 0.826 | 0.916 | 0.83 | 0.725 | 0.557
13 | NCI-H838 | 0.993 | 0.973 | 0.814 | 0.917 | 0.712 | 0.231 | 0.331 | 0.349 | 0.254 | 1.08 | 1.05 | 1.05 | 0.669 | 1.06 | 0.987 | 0.952 | 0.884 | 0.487
14 | NCI-H1792 | 0.731 | 0.747 | 0.465 | 0.236 | 0.153 | 0.371 | 0.558 | 0.431 | 0.264 |  |  |  |  |  |  |  |  | 
15 | NCI-H1563 |  |  |  |  |  | 0.522 | 0.497 | 0.515 | 0.538 | 0.949 | 0.952 | 0.92 | 0.888 | 0.833 | 0.911 | 0.862 | 0.856 | 0.823
16 | NCI-H1650 |  |  |  |  |  | 0.211 | 0.198 | 0.195 | 0.172 | 1.02 | 0.974 | 0.729 | 0.447 | 1.12 | 1.15 | 0.974 | 1.22 | 0.76
17 | NCI-H520 |  |  |  |  |  | 0.209 | 0.218 | 0.244 | 0.281 | 0.826 | 0.895 | 0.783 | 0.51 | 0.839 | 0.742 | 0.669 | 0.798 | 0.469
18 | HCC-366 | 0.262 | 0.29 | 0.272 | 0.107 | 0.121 |  |  |  |  | 0.907 | 0.963 | 0.961 | 0.392 | 0.946 | 0.931 | 0.913 | 0.892 | 0.714
19 | NCI-H522 | 0.779 | 0.846 | 0.85 | 1.07 | 0.796 | 1.16 | 1.1 | 1.09 | 0.972 |  |  |  |  |  |  |  |  | 
20 | IA-LM |  |  |  |  |  |  |  |  |  | 1.13 | 1.2 | 1.3 | 1.07 | 0.999 | 1.38 | 0.867 | 0.922 | 0.326
21 | NCI-H661 |  |  |  |  |  | 0.996 | 0.977 | 1 | 0.913 | 1.03 | 1.04 | 1.07 | 1.03 | 1 | 1.05 | 1.02 | 0.999 | 0.742
22 | SK-MES-1 |  |  |  |  |  | 0.856 | 0.849 | 0.395 | 0.386 | 1.06 | 0.762 | 0.857 | 0.648 | 0.934 | 1.17 | 0.929 | 0.792 | 0.662
23 | EBC-1 |  |  |  |  |  |  |  |  |  | 0.0952 | 0.0955 | 0.127 | 0.0874 | 0.115 | 0.0996 | 0.111 | 0.102 | 0.0879
